Measurements published in patent US20080227809A1, “Arylalkylamine Vanadium (V) Salts for the Treatment and/or Prevention of Diabetes Mellitus” (GENMEDICA THERAPEUTICS SL, priority 2004, published 2008).
Entries after “also recorded” stand apart in the source; their conditions may differ.

Experiments:
[1] = tested on: streptozotocin-induced diabetic rats; test: chronic oral treatment, glycemia of streptozotocin (45 mg/kg) diabetic rats; type: in vivo, rat
Protocol: The effect of the oral administration of hexaquis(benzylammonium) decavanadate on glycemia from diabetic rats was also studied. Diabetes was induced in rats by intravenous administration of streptozotocin, and subsequently, a hexaquis(benzylammonium) decavanadate or sodium decavanadate unique dose was administered to the rats. […] After seven days of treatment, the dose was increased at 10 μmol/kg/day which was maintained for an additional ten days. […] Thus, glycemia in sodium decavanadate treated rats was approximately 450 mg/dl and glycemia of hexaquis(benzylammonium) decavanadate treated rats was approximately 250 mg/dl.
(§1) Chronic in vivo efficacy of B6V10 was evaluated in streptozotocin-induced diabetic rats and in db/db mice. Streptozotocin-induced (45 mg/kg) diabetic rats were subcutaneously treated with hexaquis(benzylammonium) decavanadate (2.5 μmol/kg) (B6V10, solid squares, FIG. 8A) or with decavanadate (2.5 μmol/kg) (V10, open circles, FIG. 8A) delivered subcutaneously by osmotic minipumps implanted in the dorsal region. Diabetic rats were also sham-operated (untreated, solid diamonds, FIG. 8A). […] These experiments were repeated using an oral administration protocol. Streptozotocin-induced (45 mg/kg) diabetic rats were orally treated with hexaquis(benzylammonium) decavanadate (5 μmol/kg from day 0 to day 7 and 10 μmol/kg/day from day 7 to day 17) (B6V10, solid squares, FIG. 8B) or received decavanadate (10 μmol/kg) (V10, open circles, FIG. 8B). Nondiabetic rats were also untreated (solid triangles, FIG. 8B).

[2] = tested on: high-fat fed mice; test: glucose tolerance and plasma insulin in high-fat fed mice; type: in vivo, mouse
Protocol: Insulin and glucose responses during the glucose tolerance test were calculated as the incremental plasma values integrated over a period of 120 min after injection of glucose. Areas under curves of insulin and glucose responses were calculated using the Graph Prism program (SOURCE?). Data distribution was analyzed by the Kolmogorov-Smirnov test. Data were presented as mean ±SEM and unpaired Student's t test was used to compare two groups. When experimental series involved more than two groups, statistical analysis was done by one-way or two-way ANOVA and further post-hoc (Dunnett, Tukey or Bonferroni) t tests. Statistical analysis was performed with SPSS 11.0 or GraphPad Prism 4 programs.

[3] = tested on: db/db mice; test: chronic treatment of obese diabetic db/db mice, glycemia; type: in vivo, mouse
Protocol: as §1

[4] = tested on: adipocyte lipolysis; test: adipocyte lipolysis; type: cell-based
[5] = in vivo
[6] = tested on: isolated mouse adipocytes; test: glucose transport (2-DG) in isolated mouse adipocytes; type: cell-based; details: 100 μM
Protocol: Adipose cells from FVB mice were incubated for 45 minutes in basal conditions (Basal) or in the presence of 100 nM insulin (Ins), and different concentrations of hexaquis(benzylammonium) decavanadate (B6V10) in the absence or in the presence of 1 mM semicarbazide (SCZ) and thereafter, 2-DG transport was measured over 5 min.

[7] = tested on: diabetic rats; test: plasma lipids of diabetic rats; type: in vivo, rat
Protocol: Plasma triglycerides (Biosystems, Barcelona, Spain) and NEFAS (Wako Chemicals, Neuss, Germany) were determined with standard calorimetric methods.
The concentration of circulating lipids under these conditions was also assayed. […] Untreated diabetic (solid bars, FIG. 9B) or nondiabetic rats (open bars, FIG. 9B) were similarly assayed as controls.

[8] = tested on: adipocytes from treated diabetic rats; test: glucose transport in adipocytes isolated from chronically treated diabetic rats; type: in vivo, rat; details: fourteen days of treatment

- hypoglycemia [5]: did not cause hypoglycemia
Substance: hexaquis(benzylammonium) decavanadate [Example B6V10]
- effect on glycemia ([1]; daily oral administration, 17 days): significant correction of hyperglycemia; also recorded: significant lowering in blood glucose levels; also recorded: ameliorated hyperglycemia
- time of treatment after which decrease of hyperglycemia was detected ([1]; oral 5 μmol/kg/day): two
- effect on hyperglycemia ([1]; oral 5 μmol/kg/day for seven days): moderate decrease of hyperglycemia
- effect of dosage increase on glycemia ([1]; oral 10 μmol/kg/day from day 7 for additional ten days): additional decrease in glycemia
- glycemia ([1]; oral, after dosage increase to 10 μmol/kg/day): approximately 250 mg/dl
- plasma insulin levels ([2]; acute administration, mice made glucose intolerant by a high fat diet): improved plasma insulin levels; also recorded: ameliorated the pattern of plasma insulin levels
- glucose tolerance ([2]; high-fat fed mice): amelioration of glucose tolerance
- effect on glycemia [3]: ameliorated glycemia
- adipocyte lipolysis [4]: inhibited
- toxicological side effects [5]: did not show toxicological side effects
- stimulation of glucose transport (increase) [6]: 93%
- plasma concentration of cholesterol [7]: normalized
- plasma concentration of free fatty acids [7]: normalized
- plasma concentration of triglycerides [7]: normalized
- glucose transport in adipocytes of treated rats under basal conditions [8]: increased glucose transport under basal conditions equivalent to that seen in the presence of insulin
